Reference: patent US20020086065A1, “Methods and compositions for the benefit of those suffering from polycystic ovary syndrome with chromium complexes” (priority 2000, published 2002)

Tests used:
[1] = rats, oral CrCl3 with the NSAID; cited from earlier work
women with PCOS = conditions: 14 women with PCOS, metformin 850 mg three times a day for 12 weeks; cited from earlier work
[2] = test system: subject presenting with PCOS; assay: Example: oral chromium picolinate/picolinic acid tablet in a subject presenting with PCOS; type: in vivo; conditions: daily dose of 1,000 μg of chromium
Experimental: A subject presenting with PCOS is identified. The subject is orally administered a tablet comprising chromium picolinate and picolinic acid at a ratio of 1:10 w/w at a daily dose of 1,000 μg of chromium. The tablet additionally comprises guaifenesin and ibuprofen in a pharmaceutically effective dose. Over the course of several weeks, a decrease in body mass and improved lipid profile is observed. The chromic picolinate sensitizes the subject's insulin and the symptoms of PCOS are reduced.

CC(=O)Oc1ccccc1C(=O)O [aspirin]
facilitated: Chromium absorption following oral administration of CrCl3 [1]

CN(C)C(=N)N=C(N)N [metformin]
unchanged: 17-hydroxy progesterone level (women with PCOS) | Body mass index (BMI) (women with PCOS) | DHEAS level (women with PCOS) | Free testosterone level (women with PCOS) | androstenedione level (women with PCOS) | estradiol level (women with PCOS) | follicle-stimulating hormone (FSH) level (women with PCOS) | progesterone level (women with PCOS) | stimulated LH level (women with PCOS)
not improved: insulin secretion (women with PCOS)

chromic picolinate
sensitizes: effect on the subject's insulin [2]
